According to PubChem BioAssay (NCI):
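All cell lines were grown in 96-well plates and treated with compound for 48 hours. TGI marks complete inhibition of growth.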

How the values were obtained:
Assay in all cases: NCI tumour cell line growth inhibition, 48 h
[1] = system: P388/ADR leukemia
[2] = system: UACC-257 melanoma
[3] = system: XF 498 CNS
[4] = system: DLD-1 colon
[5] = system: P388 leukemia
[6] = system: DMS 273 small cell lung
[7] = system: SN12K1 renal
[8] = system: KM20L2 colon
[9] = system: DMS 114 small cell lung
[10] = system: HCC-2998 colon
[11] = system: LXFL 529 NSCLC
[12] = system: RXF-631 renal

Row | SMILES | TGI [1] [µM] | TGI [2] [µM] | TGI [3] [µM] | TGI [4] [µM] | TGI [5] [µM] | TGI [6] [µM] | TGI [7] [µM] | TGI [8] [µM] | TGI [9] [µM] | TGI [10] [µM] | TGI [11] [µM] | TGI [12] [µM]
1 | COc1cc(N=Nc2cccc(S(=O)(=O)O)c2)ccc1N=Nc1ccc(/C=C/c2ccc(-n3on3-c3ccc(/C=C/c4ccc(N=Nc5ccc(N=Nc6cccc(S(=O)(=O)O)c6)cc5OC)cc4S(=O)(=O)O)c(S(=O)(=O)O)c3)cc2S(=O)(=O)O)c(S(=O)(=O)O)c1 | > 100 | > 100 | > 100 | > 100 | > 100 | > 100 | > 100 | > 100 | > 100 | > 100 |  | 
2 | N#CC(OC1OC(COC2OC(CO)C(O)C(O)C2O)C(O)C(O)C1O)c1ccccc1 (configuration not stated) | > 225 | > 225 | > 225 | > 225 | > 225 | > 225 | > 225 | > 225 | > 225 | > 225 |  | 
3 | CCC(C)C1NC(=O)C(NC(=O)c2c3[nH]c4c(C(=O)NC5C(=O)NC(C(C)CC)C(=O)N6CCCC6C(=O)N(C)CC(=O)N(C)C(C(C)C)C(=O)OC5C)ccc(C)c4oc-3c(C)c(=O)c2=O)C(C)OC(=O)C(C(C)C)N(C)C(=O)CN(C)C(=O)C2CCCN2C1=O (configuration not stated) |  | 38.6 |  |  |  |  |  |  |  | 27.7 |  | 
4 | C=CC1C(OC2OC(CO)C(O)C(O)C2O)OC=C(C(=O)OC)C1CC1CC(=O)CC(CCc2ccc(O)cc2)O1 (configuration not stated) |  | > 100 |  |  |  |  |  |  |  | > 100 |  | 
5 | O=C1NP23(OCCO2)Oc2ccccc2C3(C(F)(F)F)O1 (configuration not stated) |  | > 100 | > 100 | > 100 |  | > 100 |  |  | > 100 |  | > 100 | 
6 | O=C(O)C1C2C=CC(C2)C1c1ccccc1 (configuration not stated) |  | > 100 |  |  |  |  |  |  |  | > 100 |  | 
7 | CCOP(=O)(COCCn1ncc(=O)[nH]c1=O)OCC |  |  |  |  |  |  |  |  |  | > 100 |  | 
8 | CN1C(=O)CSC1=S |  | > 100 |  | > 100 |  | > 100 |  | > 100 | > 100 |  | > 100 | 
9 | COc1ccc(/C(Cl)=C(\C=O)c2ccc(OC)c(OC)c2)cc1 |  |  | 56.1 |  |  |  |  | > 100 | > 100 |  | > 100 | > 100
10 | CC(=O)O/C(=C1\C[C@H]2[C@@H]3CC=C4C[C@@H](OC(C)=O)CC[C@]4(C)[C@H]3CC[C@]2(C)C1=O)C(F)(F)F |  | 15.1 |  |  |  |  |  |  |  | 19 |  | 
11 | COc1ccc(CC2c3cc(OC)c(OC)cc3CC[N+]2(C)C)cc1OC (configuration not stated) |  | > 100 |  |  |  |  |  |  |  | > 100 |  | 
12 | COc1cccc2cc(C(=O)O)c(=O)oc12 |  | > 100 |  |  |  |  |  |  |  | > 100 |  | 
13 | COc1c(OC(C)=O)c(OC(C)=O)cc2c1-c1ccc(SC)c(=O)cc1C(NC(C)=O)CC2 (configuration not stated) |  | > 100 | > 28.8 | > 100 |  | > 100 |  | 6.84 |  | > 27.6 | > 100 | 
